These results are taken from ChEMBL document CHEMBL5042504 (J Med Chem, 2022).

The target of series [1] is T1, Protein deacetylase HDAC6 (Homo sapiens, UniProt Q9UBN7).
T1 sequence (Q9UBN7 whole entry): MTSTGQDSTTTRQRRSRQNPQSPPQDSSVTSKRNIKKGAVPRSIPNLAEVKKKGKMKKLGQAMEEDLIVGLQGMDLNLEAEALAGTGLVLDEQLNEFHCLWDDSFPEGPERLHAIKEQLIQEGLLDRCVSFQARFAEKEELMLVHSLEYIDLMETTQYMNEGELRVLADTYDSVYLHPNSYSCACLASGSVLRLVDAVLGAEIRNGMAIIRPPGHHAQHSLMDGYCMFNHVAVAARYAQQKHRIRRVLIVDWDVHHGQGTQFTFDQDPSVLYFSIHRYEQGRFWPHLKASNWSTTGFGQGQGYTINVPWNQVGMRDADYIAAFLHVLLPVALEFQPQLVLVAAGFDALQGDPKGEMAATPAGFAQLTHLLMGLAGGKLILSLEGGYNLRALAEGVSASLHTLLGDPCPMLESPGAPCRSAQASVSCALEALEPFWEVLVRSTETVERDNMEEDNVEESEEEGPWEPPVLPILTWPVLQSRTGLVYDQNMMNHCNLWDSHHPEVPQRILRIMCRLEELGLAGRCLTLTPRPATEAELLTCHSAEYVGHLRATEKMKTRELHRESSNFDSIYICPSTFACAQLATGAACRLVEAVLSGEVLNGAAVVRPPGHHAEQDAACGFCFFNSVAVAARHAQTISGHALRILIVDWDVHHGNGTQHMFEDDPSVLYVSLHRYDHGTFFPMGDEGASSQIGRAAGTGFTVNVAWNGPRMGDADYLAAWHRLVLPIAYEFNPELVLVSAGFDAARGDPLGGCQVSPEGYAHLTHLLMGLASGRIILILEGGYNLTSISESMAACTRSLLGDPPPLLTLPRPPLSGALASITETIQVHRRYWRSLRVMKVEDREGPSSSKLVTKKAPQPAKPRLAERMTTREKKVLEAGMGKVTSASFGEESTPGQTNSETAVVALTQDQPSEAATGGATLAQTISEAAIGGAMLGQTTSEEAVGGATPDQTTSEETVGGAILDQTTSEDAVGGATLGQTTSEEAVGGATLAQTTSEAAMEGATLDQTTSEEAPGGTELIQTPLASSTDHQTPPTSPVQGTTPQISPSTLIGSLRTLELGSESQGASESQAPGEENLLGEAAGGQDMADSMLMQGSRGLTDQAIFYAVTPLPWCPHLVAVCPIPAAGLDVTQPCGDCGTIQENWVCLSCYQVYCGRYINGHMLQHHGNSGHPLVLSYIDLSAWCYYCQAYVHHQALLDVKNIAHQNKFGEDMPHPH
Kind of series: Inhibition of human recombinant HDAC6 using Boc-Lys(acetyl)-AMC substrate incubated for 2 hrs by fluorescence based assay.

In series [2] the target is Histone deacetylase 4 (Homo sapiens, UniProt P56524). Kind of series: Inhibition of human recombinant HDAC4 using Boc-Lys(triflouroacetyI)-AMC substrate incubated for 2 hrs by fluorescence based assay.
Series [3] concerns the target T2, Histone deacetylase 7 (Homo sapiens, UniProt Q8WUI4).
T2 sequence (Q8WUI4 whole entry): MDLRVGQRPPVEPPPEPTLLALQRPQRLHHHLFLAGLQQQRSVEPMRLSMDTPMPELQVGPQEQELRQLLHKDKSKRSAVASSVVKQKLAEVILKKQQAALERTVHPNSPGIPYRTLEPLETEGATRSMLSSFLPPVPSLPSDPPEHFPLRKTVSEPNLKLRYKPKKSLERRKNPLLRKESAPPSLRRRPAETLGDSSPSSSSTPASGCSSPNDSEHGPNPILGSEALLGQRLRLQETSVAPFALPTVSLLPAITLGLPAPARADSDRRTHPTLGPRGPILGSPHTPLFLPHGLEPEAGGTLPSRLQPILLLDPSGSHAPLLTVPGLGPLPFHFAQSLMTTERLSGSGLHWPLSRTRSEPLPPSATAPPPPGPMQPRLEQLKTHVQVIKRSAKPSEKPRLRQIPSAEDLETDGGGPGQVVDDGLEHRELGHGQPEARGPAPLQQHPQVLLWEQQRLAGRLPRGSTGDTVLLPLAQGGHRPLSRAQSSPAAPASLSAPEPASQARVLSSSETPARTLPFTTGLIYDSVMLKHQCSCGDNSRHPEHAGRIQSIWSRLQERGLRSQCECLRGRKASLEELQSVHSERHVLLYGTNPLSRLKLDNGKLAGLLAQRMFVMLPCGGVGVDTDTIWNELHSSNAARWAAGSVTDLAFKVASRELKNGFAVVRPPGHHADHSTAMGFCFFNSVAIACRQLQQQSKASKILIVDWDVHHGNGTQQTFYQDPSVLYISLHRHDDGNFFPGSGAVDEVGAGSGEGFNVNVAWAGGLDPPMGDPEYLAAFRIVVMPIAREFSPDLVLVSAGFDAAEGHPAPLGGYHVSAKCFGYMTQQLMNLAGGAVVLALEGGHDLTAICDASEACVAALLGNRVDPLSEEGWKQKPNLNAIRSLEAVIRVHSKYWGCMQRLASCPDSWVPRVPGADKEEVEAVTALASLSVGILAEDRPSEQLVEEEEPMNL
Kind of series: Inhibition of human recombinant HDAC7 using Boc-Lys(triflouroacetyI)-AMC substrate incubated for 2 hrs by fluorescence based assay.

For series [4], the target named is Histone deacetylase 2 (Homo sapiens, UniProt Q92769). Kind of series: Inhibition of human recombinant HDAC2 using Boc-Lys(acetyl)-AMC substrate incubated for 2 hrs by fluorescence based assay.
Series [5] in a line: Half life in CD-1 mouse at 5 mg/kg, iv measured upto 24 hrs. The format is ADME, organism-based. Conditions: in vivo.
In series [6] the test system is MV4-11. Kind of series: Cell cycle arrest in human wt-p53 MV4-11 cells assessed as accumulation at G2/M-phase at 200 nM measured after 24 hrs realtive to control. The format is functional, cell-based.
Series [7] has as its system HL-60. Kind of series: Induction of apoptosis in human p53 null HL-60 cells assessed as […] at 500 nM measured after 24 hrs by FITC Annexin V/propidium iodide staining based flow cytometry (reference value: 20.55%). The format is functional. As to conditions: read-out: Activity. For orientation: A flow cytometer gives signals particle by particle.
Series [8] concerns MV4-11. Kind of series: Antitumor activity against human MV4-11 cells xenografted in balb/c mouse assessed as accumulation of AcHH3 protein level at 4 mg/kg, po measured after 8 hrs. Type of series: functional, organism-based. In general terms: In xenograft studies the graft and the host belong to different species.
The nature of series [9]: Drug distribution in BALB/c mouse liver measured at 4 mg/kg, po or ip after 0.5 hrs after 0.5 hrs. Conditions: in vivo. Type of series: ADME, organism-based.
Series [10] can be described thus: Drug distribution in BALB/c mouse brain measured at 4 mg/kg, po or ip after 0.5 hrs after 0.5 hrs. Type of series: ADME, organism-based. Conditions: in vivo.
Series [11] in a line: Drug distribution in BALB/c mouse kidney measured at 4 mg/kg, po or ip after 2 to 8 hrs after 0.5 hrs. Conditions: in vivo, time 2-8 hrs. The format is ADME, organism-based.
Series [12] in a line: Drug metabolism in BALB/c mouse liver assessed as metabolized compound. Type of series: ADME, tissue-based.
A short description of series [13]: Toxicity in BALB/c mouse assessed as induction of pathological changes in liver by H and E staining based analysis. The format is tissue-based. Conditions: in vivo.
The nature of series [14]: Drug distribution in tumor of BALB/c mouse xenografted with human MV4-11 cells assessed as measured after 2 hrs. Type of series: ADME. As to conditions: read-out: Ct.

Active and inactive are the calls of the source. No cut-off for these calls is given here.

One may read the IC50 as the concentration needed to halve the response being measured. A word on the half-life: it is the time in which the quantity being followed falls by half. A lower half-life goes with fast loss.

Histone deacetylase 4, sequence (P56524 whole entry): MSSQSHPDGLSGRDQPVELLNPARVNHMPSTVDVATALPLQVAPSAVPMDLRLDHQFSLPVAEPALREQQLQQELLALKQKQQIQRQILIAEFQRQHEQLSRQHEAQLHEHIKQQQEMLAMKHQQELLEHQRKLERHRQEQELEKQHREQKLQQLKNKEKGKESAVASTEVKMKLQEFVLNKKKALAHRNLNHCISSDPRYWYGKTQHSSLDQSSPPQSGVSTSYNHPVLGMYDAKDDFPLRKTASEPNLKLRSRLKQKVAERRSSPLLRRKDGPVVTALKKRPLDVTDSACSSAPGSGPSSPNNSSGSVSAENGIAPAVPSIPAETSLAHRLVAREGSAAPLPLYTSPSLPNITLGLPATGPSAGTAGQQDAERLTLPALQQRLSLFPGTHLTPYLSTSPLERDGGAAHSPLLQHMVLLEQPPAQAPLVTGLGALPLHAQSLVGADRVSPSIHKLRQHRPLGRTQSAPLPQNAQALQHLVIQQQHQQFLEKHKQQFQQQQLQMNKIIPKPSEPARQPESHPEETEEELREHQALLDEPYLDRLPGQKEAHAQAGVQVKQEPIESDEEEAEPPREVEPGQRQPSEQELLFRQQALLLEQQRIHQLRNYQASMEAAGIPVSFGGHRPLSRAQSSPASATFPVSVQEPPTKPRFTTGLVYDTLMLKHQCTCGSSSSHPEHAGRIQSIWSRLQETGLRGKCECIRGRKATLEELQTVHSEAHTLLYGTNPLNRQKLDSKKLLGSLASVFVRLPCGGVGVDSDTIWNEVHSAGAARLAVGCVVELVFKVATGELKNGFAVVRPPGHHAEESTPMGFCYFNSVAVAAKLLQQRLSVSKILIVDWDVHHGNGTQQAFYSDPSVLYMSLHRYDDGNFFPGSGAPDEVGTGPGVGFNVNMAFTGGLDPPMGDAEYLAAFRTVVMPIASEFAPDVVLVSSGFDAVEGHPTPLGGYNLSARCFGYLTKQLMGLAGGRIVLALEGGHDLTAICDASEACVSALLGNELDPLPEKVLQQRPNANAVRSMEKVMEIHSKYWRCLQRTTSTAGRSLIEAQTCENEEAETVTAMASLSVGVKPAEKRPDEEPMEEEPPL
Histone deacetylase 2, sequence (Q92769 whole entry): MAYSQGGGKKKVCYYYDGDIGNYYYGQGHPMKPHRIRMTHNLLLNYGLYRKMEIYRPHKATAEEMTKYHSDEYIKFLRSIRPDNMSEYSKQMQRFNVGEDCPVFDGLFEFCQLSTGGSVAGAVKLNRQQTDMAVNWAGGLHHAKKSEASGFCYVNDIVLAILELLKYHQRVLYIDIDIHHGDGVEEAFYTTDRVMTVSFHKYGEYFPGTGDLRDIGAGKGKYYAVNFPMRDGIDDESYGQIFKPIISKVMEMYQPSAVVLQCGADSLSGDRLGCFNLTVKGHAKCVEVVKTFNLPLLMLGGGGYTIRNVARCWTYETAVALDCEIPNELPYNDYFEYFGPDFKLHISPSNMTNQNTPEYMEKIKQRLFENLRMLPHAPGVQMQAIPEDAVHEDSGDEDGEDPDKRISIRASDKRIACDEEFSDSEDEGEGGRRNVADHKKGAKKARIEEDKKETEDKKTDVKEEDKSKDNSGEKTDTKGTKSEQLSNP

Take `CCCNNC(=O)c1ccc(CNC(=O)/C=C/c2ccccc2)cc1`: the IC50 in [1] is over 10 µM; in [2], over 5 µM; in series [3] it was over 5 µM.
`CCCNNC(=O)c1ccc(CNC(=O)c2cc3ccccc3[nH]2)cc1`: the IC50 in series [1] was over 10 µM; in series [4], 0.0185 µM; in series [2] it was over 5 µM; in series [3] it was over 5 µM. The compound further gave a half-life in [5] of 6.75 h. Besides, the result in [6] and in series [8] was Active. Further, the viability at 0.5 µM in [7] stood at 44.8%. Moreover, the Drug uptake result in series [9], in series [10] and in [11] was “Active” in each case. Moreover, the Drug metabolism result in series [12] was “Metabolite_Detected”. For the same compound, in series [13], the Activity result is “Non-Toxic”. Also, in series [14], the concentration at 2 h amounted to 882 ng/g.
